Reference: patent US20100062441A1, “C-MET MUTATIONS AND USES THEREOF” (priority 2007, published 2010)

Experiments:
[1] = system: c-Met phosphorylation in SCCHN cell lines; test: c-Met phosphorylation and downstream signaling after HGF stimulation; type: cell-based, human
[2] = system: melanoma cell lines that expressed c-Met; test: Cell growth analysis (cell counting); type: cell-based; settings: Homo sapiens; 96 hrs, MEM with 10% serum
Method: (§1) For measuring the effect of SU11274 on growth of melanoma cells, MM-AN, MU, PM-WK, MM-RU, MM-MC and RPM-EP cells were plated at 6×10^4 cells in 60 mm dishes in MEM with 10% serum. After 24 hrs different concentrations of SU11274 were added and after 96 hrs cells were trypsinized and counted in a cell counter (Beckman Coulter). Each data point was repeated in triplicate.

[3] = system: MM-AN melanoma cells (minimal levels of c-MET); test: Cell growth analysis (cell counting); type: cell-based, human
Method: as §1

MM-AN cells = test: Apoptosis by propidium iodide FACS (sub G0/G1); type: cell-based, human
Method: MM-AN, MU, PM-WK, MM-RU, MM-MC, MM-LH and RPM-EP melanoma cells were grown in MEM (Cellgro, Hernon, Va.) with 10% FBS (Gemini Bioproducts, Woodland, Calif.). Triplicate melanoma cell cultures were grown in MEM with 10% FBS and treated with a final concentration of 5-10 μM of SU11274 or an equal volume of diluent (DMSO) as a control for 96 hrs. Cells were collected, stained with propidium iodide and analyzed with a Becton Dickinson FACS Scan and Cell Quest software.
SU11274, which is a highly specific inhibitor of c-Met, was tested on the six melanoma cell lines. […] By 96 hrs between 12 to 58% of cells in different melanoma cell lines appeared in the sub G0/G1 region of the FACS profile indicating apoptosis.

[4] = system: MITF, tyrosinase, gp-100, MART-1; test: Immunoblotting of melanoma differentiation proteins, densiometric analysis; type: cell-based, human; settings: 12 hrs after treatment; 10 μM SU11274
Source text: SU11274: [(3Z)-N-(3-chlorophenyl)-3-({3,5-dimethyl-4-[(4-methylpiperazin-1-yl)carbonyl]-1H-pyrrol-2-yl}methylene)-N-methyl-2-oxo-2,3-dihydro-1H-indole-5-sulfonamide] (obtained from Pfizer Inc, San Diego, Calif.) was suspended in DMSO and kept in small aliquots at −20 degrees. Phosphospecific antibody to pY1230/1234/1235 (autophosphorylation site) was obtained from Biosource International, Camarillo, Calif. Phosphospecific antibodies for pS473 on AKT and pT421/pS424 on p70 S6-Kinase were obtained from Cell Signaling, Beverly, Mass. Total c-Met and BCLXL antibodies were obtained from Santa Cruz Biotechnology, Santa Cruz, Calif. and β-actin from Sigma Aldrich (St. Louis, Mo.). For detecting melanoma differentiation proteins the following antibodies were used anti-tyrosinase monoclonal antibody (clone T311, Nova-castra, New Castle upon Tyne, UK), anti-gp-100 monoclonal antibody (MO 634, Dako corporation, Carpinteria, Calif.) and anti-MART-1/Melan-A monoclonal antibody (clone M2-7C10, Signet, Dedham, Mass.).
Cells were lysed in lysis buffer containing 20 mM Tris, pH 8.0; 150 mM NaCl, 10% glycerol, 1% NP40, 0.42% NaF, 1 mM PMSF, 1 mM Na3V04, 10 μl/ml Protease inhibitor cocktail (Sigma Aldrich, St. Louis, Mo.) as described previously (Maulik et al., Clin Cancer Res, 8: 620-7 (2002)). Cell lysates were separated by 7.5% or 10% SDS-PAGE electrophoresis under reducing conditions. Proteins were transferred to an immobilization membrane (Bio-Rad Laboratories, Hercules, Calif.) and immunoblotted using the enhanced chemiluminescence technique (PerkinElmer Life and analytical Sciences, Torrence, Calif.).
siRNA against c-Met was obtained from Dharmacon (Lafayette, Colo.). Briefly four pooled SiRNA duplexes were transiently transfected into MU melanoma cells by the Dharmacon protocol utilizing Oligofectamine obtained from Invitrogen (Carlsbad, Calif.). Mock transfection was done in parallel using SignalSilence control SiRNA (Cell Signaling Technology) as negative control. For studies on the effect of Si RNA on differentiation proteins MU melanoma cells were transfected with Si RNA as described above and cell lysates were prepared after 12 hrs and immunoblotting performed as described above.
It was hypothesized that SU11274 could not only induce a differentiated phenotype, but also MITF, tyrosinase and other melanocyte associated differentiation markers. […] The increase in the level of various differentiation proteins was determined by densiometric anaylsis after treatment with 10 μM SU11274.
The effect of si RNA against c-Met was also studied on the proliferation and differentiation of MU melanoma cells. […] The increase in the level of various differentiation proteins was determined by densiometric anaylsis after treatment with c-Met si RNA.

[5] = system: c-Met dependent signaling in MM-MC melanoma cells; test: Phosphorylation of c-Met and signaling molecules via HGF, immunoblotting; type: cell-based, human; settings: MM-MC (c-Met mutation)
Method: (§2) MU and MC cells that expressed c-Met were deprived of growth factors by incubation in serum free medium containing 0.5% BSA for 24 hours with or without SU11274 (5 μM). After treatment with or without SU11274 in serum free medium, cells were stimulated with or without HGF (EMD Biosciences, San Diego, Calif.) at 40 ng/ml for 7.5 minutes at 37° C. After harvesting, the cells were subjected to the standard procedures of immunoblotting. Antibodies specifically against phosphorylated c-Met, and other proteins are as described above.
(§3) The ability of SU11274 to inhibit activation of c-Met was examined by immunoblotting. Treatment with HGF increased the autophosphorylation of c-MET at the activation loop site phospho-epitope [pY1230/1234/1235]. […] HGF binding to c-Met activated its' tyrosine kinase, AKT (S-473) and S-6 kinase (T-421/S424).

[6] = system: c-Met dependent signaling in MU melanoma cells; test: as above; type: cell-based, human
Method: as §2, §3

Cc1[nH]c(/C=C2\C(=O)Nc3ccc(S(=O)(=O)N(C)c4cccc(Cl)c4)cc32)c(C)c1C(=O)N1CCN(C)CC1 [SU11274, (3Z)-N-(3-chlorophenyl)-3-({3,5-dimethyl-4-[(4-methylpiperazin-1-yl)carbonyl]-1H-pyrrol-2-yl}methylene)-N-methyl-2-oxo-2,3-dihydro-1H-indole-5-sulfonamide]
c-Met phosphorylation ([1]; all cell lines tested, HGF stimulation): Marked inhibition | downstream phosphorylation of SHP2, AKT, ERK ([1]; degree varied by cell line): affected downstream phosphorylation of SHP2, AKT, and to a lesser degree ERK | IC50 [2]: 1 to 2.5 µM | IC50 of MM-AN relative to cell lines with abundant c-Met [3]: 2 fold | IC50 ([3]; Homo sapiens, MM-AN, 96 hrs): 5 µM | apoptosis (MM-AN cells): No apoptosis could be detected | increase in levels of MART-1 [4]: 2 fold | increase in levels of MITF [4]: 3 fold | increase in levels of gp-100 [4]: 6 fold | increase in levels of tyrosinase [4]: 12 fold | phosphorylation of c-Met and AKT [5]: inhibited | BCLXL level [6]: downregulated | HGF induced phosphorylation of c-Met, AKT and S6 kinase ([6]; 5 μM): completely inhibited | autophosphorylation of c-MET at activation loop site [pY1230/1234/1235] ([6]; HGF stimulated): completely abolished | phosphorylation of c-Met and AKT ([6]; MU (no c-Met mutation)): inhibited
